# Assay results taken from patent publication US20220096539A1, “SALT NANOPARTICLES AND COMPOSITIONS AND METHODS OF USE THEREOF” (priority 2019, published 2022).
# What was measured:
# PC-3 cells [1] = assay type: cell-based, human; settings: MTT 24 h; NaCl salt at 160 μg/mL; free phospholipid
# Protocol: Cells were seeded into 96-well plates at the density of 1×10^4 cells per well and incubated overnight. […] MTT assays (3-(4,5-dimethylthiazol-2-yl)-2,5-diphenyl tetrazolium bromide, Sigma) were performed following the manufacture's protocol. The absorbance at 570 nm was measured by a microplate reader (Synergy Mx, BioTeK). All measurements were performed in sextuplicate.
# B16F10 cells = assay: CRT presentation, ATP and HMGB-1 release; assay type: cell-based, murine; settings: control
# Protocol: (§1) CRT expression on cell surface in flow cytometry assessment. T24, UMUC2, UPPL-1541, BBN963, B16F10, and SCC VII cells are seeded into the 6 wells plate at 1×10^6 per well. After overnight incubation, the cells were treated with NaCl particles ([…]) (160 μg/mL) for 2 h. PBS treated cells were used as a control. All the cells were collected by cell […], and incubated with an Alexa Fluor® 647-conjugated anti-CRT antibody (ab196159, 1/500. Abcam) for 30 min at 4° C. The cells were incubated in 500 μL PBS containing 50 μg/mL propidium iodide before washing and assessment on a flow cytometer. The data were expressed in histogram compared to the PBS treated control cells. Cells were seeded into 96-well plates at the density of 1×10^4 cells per well and incubated overnight. Then the cells were treated with […] dispersed in PBS at a dose range of 13.2-320 μg/mL for 1, 2, 4 h and 24 h. Cell supernatant was collected after 1-4 h incubation and tested in ATP 1step Luminescence Assay System, 100 mL ATP Assay Kit (PerkinElmer, US) following the manufacture's protocol. […] The luminescence was measured by a microplate reader (Synergy Mx, BioTeK). All measurements were performed in sextuplicate. Cell supernatant was collected after 24 h incubation and tested in an ELISA kit (IBL International GmbH), according to the manufacturer's instructions.
# SCC VII cells = assay: CRT presentation, ATP and HMGB-1 release; assay type: cell-based, murine; settings: control
# Protocol: as §1
# PC-3 cells [2] = assay: Necrosis inhibition study (LDH release); assay type: cell-based, human; settings: PC-3 cells pre-incubated with inhibitor 1 h, then PSCNPs
# Protocol: PC-3 cells were plated overnight at a density of 1×10^4 cells per well in a 96-well plate. These cells were pre-treated with necrosis inhibitor glycine (5 mM) or capsase-1 inhibitor Ac-YVAD-cmk (30 μg/mL) for 1 h, and then incubated with […] (160 or 320 μg/mL) for 6 h. Cell without glycine or Ac-YVAD-cmk treatment were studied as controls. Supernatants were collected and the LDH contents were analyzed by LDH Assay Kit-WST (CT01-05, Dojindo, Japan). The results were normalized to PBS treated control cells.
# [3] = assay type: physicochemical; settings: pH 5.5
# Protocol: were dispersed in 100 μl ammonium acetate buffers (pH=5.5 or pH=7) and added into a Slide-A-LyzerTM MINI Dialysis Device (MWCO=2K, Cat #69550, Thermofisher, US). Place the unite into a 5 mL Eppendorf tube containing 4.5 mL ammonium acetate buffer. Keep the tube on the shaker (20 rpm) at room temperature. […] All measurements were performed following the manufacture's protocol and repeated in sextuplicate.
# PC-3 tumor xenografts = assay: In vivo therapy study, PC-3 tumor model; settings: mouse
# Protocol: Animal studied were performed according to a protocol approved by the Institutional Animal Care and Use Committee (IACUC) of the University of Georgia. The animals were maintained under pathogen-free conditions. PC-3 tumor model was generated by subcutaneously injecting 2×10^6 cells in 50 μL PBS into the right flank of 5-6 week old male athymic nude mice (Charles River). U-87 MG tumor model was generated in female athymic nude mice (Charles River) following the same method as PC-3 model. B16F10 tumor model was generated by subcutaneously injecting 2×10^5 cells in 50 μL PBS into the right flank of 5-6 week old female C57BU6 mice (Charles River). SCC VII tumor model was generated by subcutaneously injecting […] in 50 μL PBS into the right flank of 5-6 week old female C3H/HeN mice (Charles River). UPPL-1541 tumor model was generated by subcutaneously injecting 1×10^6 cells in 50 μL PBS into the right flank of 5-6 week old female C57BL6 mice (Charles River).
# For therapy studies, PC-3 tumor bearing mice were randomly divided into 2 groups (n=5 for each group). When the average tumor volume was about 100 mm^3, PSCNPs (9 mg/mL, 50 μL) were intratumorally injected on day 0, 2 and 4. For control, saline at the same volume was injected. […] The tumor was measured in two dimensions with a caliper, and the tumor volume was estimated as (length)×(width) 2/2. […]
Compound,toxicity to PC-3 cells (PC-3 cells [1]),reduction of PSCNP-induced LDH release (PC-3 cells [2]),other results
"1,2-distearoyl-sn-glycero-3-phosphoethanolamine-N-[amino(polyethylene glycol)-2000] (ammonium salt) [free phospholipid]",no toxicity,–,–
"[Cl-].[Na+] [NaCl salt, NaCl]",no toxicity,–,release of ICD biomarkers (ATP and HMGB-1) (B16F10 cells): negligible impact; release of ICD biomarkers (ATP and HMGB-1) (SCC VII cells): negligible impact
NCC(=O)O [glycine],–,72.9%,–
Ac-YVAD-cmk,–,60.9%,–
Phospholipid-coated Sodium Chloride Nanoparticles [PSCNPs],–,–,effect of lowering pH to 5.5 on nanoparticle degradation [3]: did not accelerate nanoparticle degradation; toxicity in major organs (PC-3 tumor xenografts): no sign of toxicity
